Assay results: patent US6685617B1, “Inhibitors of α4β1 mediated cell adhesion” (Pharmacia & Upjohn Company, priority 1998, dated 2004)

Target: T1, α4β1 integrin (Jurkat T-cell adhesion to IL-1 stimulated endothelial cell monolayers) (Homo sapiens, UniProt P05556+P13612)
T1 construct: a T-cell line, Jurkat, known to express the α4β1 integrin; host or cells: Jurkat T-cell line
Experiment: Jurkat-endothelial cell adhesion assay (Jurkat EC)
Type: cell-based
Conditions: Jurkat cells on IL-1 stimulated human umbilical vein endothelial cells; read-out: JK/EC (Jurkat EC Assay IC50 value range)
Protocol: Jurkat-endothelial Cell Adhesion Assay:
The following assay established the activity of the present compounds in inhibiting β1-mediated cell adhesion in a representative in vitro system. This assay measures the adhesive interactions of a T-cell line, Jurkat, known to express the α4β1 integrin, to endothelial monolayers in the presence of test compounds. The test compounds were added in increasing concentrations to T-cells and then the T-cell compound mixture was added to IL-1 stimulated endothelial cell monolayers. The plates were incubated, washed and the percentage of attached cells was quantitated.
Human umbilical vein endothelial cells were purchased from Clonetics (San Diego, Calif.) at passage number 2. The cells were grown on 0.5% porcine skin gelatin pre-coated flasks (Sigma, St. Louis Mo.) in EGM-UV media (Clonetics, San Diego, Calif.) supplemented with 10% fetal bovine serum. Cells are refed every 2-3 days reaching confluence by day 4 to 6. […] The endothelial cells are not used following passage 6.
The T-cell line Jurkat was obtained from American Type Tissue Culture Collection (Rockville, Md.) and the cells were cultured in RPMI containing 10% fetal calf serum. The cells were washed twice in Hank's Balanced Salt Solution (HBSS) and resuspended in Dulbecco's Minimal Eagle's Media (DMEM) containing 2.5 mg/ml Human Serum Albumin (HSA). Jurkat cells (1×10^6 cells/ml) were stained with 10 ng/ml BCECF-AM (Molecular Probes, Eugene, Oreg.)) in HBSS without phenol red. The cells were loaded with BCECF for 60 minutes in the dark at 370C, washed 2 times, and resuspended in DMEM-HSA solution.
Confluent endothelial monolayers, grown in 96-well tissue culture plates, were stimulated for 4 hr. at 37° C. with 0.1 ng/ml (˜50 U/ml) recombinant IL-1 (Amgen, Thousand Oaks, Calif.). Following this incubation, the monolayers were washed twice with HBSS and 0.1 ml of DMEM−HSA solution was added. Jurkat cells (5×10^5 cells) were combined with the appropriate concentration of the test compound and 0.1 ml of the Jurkat cell-compound mixture was added to the endothelial cell monolayers. Generally, 100, 20, 5 and 1.25 μM compound concentrations were tested. […] The plates were placed on ice for 5 minutes to allow for Jurkat cell settling and the plates were incubated at 37° C. for 20 minutes. Following this incubation, the monolayers were washed twice with PBS containing 1 mM calcium chloride and 1 mM magnesium chloride and the plates were read using a Millipore Cytofluor 2300 (Marlboro, Mass.). Fluorescence in each well was measured as Arbitrary Fluorescence Units and percent adhesion in the absence of compound was adjusted to 100% and the % adhesion in the presence of compound was calculated. Monolayers were also fixed in 3% paraformaldehyde and evaluated microscopically to verify the adhesion. This procedure is a modification of a previously published method (Cardarelli et al., J. Biol. Chem. 269:18668-18673 (1994)).

T1 sequence (P13612 34-1032): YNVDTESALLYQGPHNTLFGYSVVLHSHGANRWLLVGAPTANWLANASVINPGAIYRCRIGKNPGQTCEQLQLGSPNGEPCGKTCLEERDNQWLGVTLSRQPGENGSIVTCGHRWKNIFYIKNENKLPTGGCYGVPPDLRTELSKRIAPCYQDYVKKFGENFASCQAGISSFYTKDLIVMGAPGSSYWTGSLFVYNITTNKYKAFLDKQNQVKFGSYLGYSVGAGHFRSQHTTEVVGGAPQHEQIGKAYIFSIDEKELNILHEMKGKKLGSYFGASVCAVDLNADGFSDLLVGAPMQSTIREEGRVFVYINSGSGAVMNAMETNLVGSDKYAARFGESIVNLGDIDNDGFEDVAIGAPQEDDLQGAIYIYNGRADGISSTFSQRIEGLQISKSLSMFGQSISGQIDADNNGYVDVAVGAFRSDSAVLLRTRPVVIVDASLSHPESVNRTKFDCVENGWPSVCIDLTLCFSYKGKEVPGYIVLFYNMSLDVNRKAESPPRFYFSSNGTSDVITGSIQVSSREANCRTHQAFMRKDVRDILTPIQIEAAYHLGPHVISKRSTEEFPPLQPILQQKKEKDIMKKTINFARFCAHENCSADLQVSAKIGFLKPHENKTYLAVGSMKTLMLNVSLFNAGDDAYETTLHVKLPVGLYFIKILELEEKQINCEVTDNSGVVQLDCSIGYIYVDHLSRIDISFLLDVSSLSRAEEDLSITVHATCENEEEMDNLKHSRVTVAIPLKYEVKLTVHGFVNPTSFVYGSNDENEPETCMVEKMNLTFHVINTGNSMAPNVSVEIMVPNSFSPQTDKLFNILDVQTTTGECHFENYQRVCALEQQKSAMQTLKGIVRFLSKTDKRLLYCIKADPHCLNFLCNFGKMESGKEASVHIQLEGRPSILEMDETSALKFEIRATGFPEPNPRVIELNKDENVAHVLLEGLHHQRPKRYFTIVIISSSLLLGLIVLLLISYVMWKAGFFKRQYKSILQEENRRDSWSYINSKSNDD
T1 sequence (P05556 21-798): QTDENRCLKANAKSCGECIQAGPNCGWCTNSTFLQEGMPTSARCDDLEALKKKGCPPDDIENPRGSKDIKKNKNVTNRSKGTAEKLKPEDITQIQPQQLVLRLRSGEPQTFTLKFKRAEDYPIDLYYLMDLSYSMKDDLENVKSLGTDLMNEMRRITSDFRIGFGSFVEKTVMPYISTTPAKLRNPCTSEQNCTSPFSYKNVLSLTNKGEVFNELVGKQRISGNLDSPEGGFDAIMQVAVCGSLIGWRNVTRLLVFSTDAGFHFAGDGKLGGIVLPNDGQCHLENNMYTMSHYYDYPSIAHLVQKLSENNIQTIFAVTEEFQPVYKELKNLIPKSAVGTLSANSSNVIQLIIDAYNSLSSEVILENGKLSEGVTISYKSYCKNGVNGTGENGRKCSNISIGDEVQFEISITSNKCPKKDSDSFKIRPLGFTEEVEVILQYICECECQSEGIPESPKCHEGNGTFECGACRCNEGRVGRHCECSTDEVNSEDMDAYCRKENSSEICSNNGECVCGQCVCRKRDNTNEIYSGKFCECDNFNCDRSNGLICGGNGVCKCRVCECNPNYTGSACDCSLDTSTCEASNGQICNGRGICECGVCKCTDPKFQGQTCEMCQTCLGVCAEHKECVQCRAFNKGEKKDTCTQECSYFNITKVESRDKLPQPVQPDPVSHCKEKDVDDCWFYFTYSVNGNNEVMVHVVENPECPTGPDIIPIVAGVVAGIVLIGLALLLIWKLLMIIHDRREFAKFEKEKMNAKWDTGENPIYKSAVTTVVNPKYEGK

IC50 [nM]	Structure (SMILES)
≥ 1000	CCOC(=O)N1CSC[C@@H]1C(=O)N[C@@H](Cc1ccc(OCc2c(Cl)cccc2Cl)cc1)C(N)=O (relative stereo) [Example 90, [S-(R*,R*)]-4-[[[1-[[4-[(2,6-Dichlorophenyl)methoxy]phenyl]methyl]-2-amino-2-oxoethyl]amino]carbonyl]-3-thiazolidinecarboxylic Acid 3-Ethyl Ester]
≥ 1000	O=C(C[C@H]1CC[C@@H](C(=O)O)N1Cc1ccccc1)N[C@@H](Cc1ccc(OCc2c(Cl)cccc2Cl)cc1)C(=O)O [Example 94, (5R)-5-[2-[[(1S)-1-Carboxy-2-[4-[(2,6-dichlorophenyl)methoxy]phenyl]ethyl]amino]-2-oxoethyl]-1-(phenylmethyl)-L-proline]
≥ 1000	O=C(C[C@@H]1CC[C@H](C(=O)O)N1Cc1ccccc1)N[C@@H](Cc1ccc(OCc2c(Cl)cccc2Cl)cc1)C(=O)O [Example 95, (5S)-5-[2-[[(1S)-1-Carboxy-2-[4-[(2,6-dichlorophenyl)methoxy]phenyl]ethyl]amino]-2-oxoethyl]-1-(phenylmethyl)-D-proline]
≥ 1000	COC(=O)CCC1(CCC(=O)N[C@@H](Cc2ccc(NC(=O)c3c(Cl)cccc3Cl)cc2)C(=O)OC)CCC(=O)N1C (stereo partly drawn) [Example 110, 2-[3-[[(1S)-1-[[4-[(2,6-Dichlorobenzoyl)amino]phenyl]methyl]-2-methoxy-2-oxoethyl]amino]-3-oxopropyl]-1-methyl-5-oxo-2-pyrrolidinepropanoic Acid Methyl Ester]
≥ 1000	COC(=O)CCC1(CCC(=O)N[C@@H](Cc2ccc(OCc3c(Cl)cccc3Cl)cc2)C(=O)OC)CCC(=O)N1 (stereo partly drawn) [Example 112, 2-[3-[[(1S)-1-[[4-[(2,6-Dichlorophenyl)methoxy]phenyl]methyl]-2-methoxy-2-oxoethyl]amino]-3-oxopropyl]-5-oxo-2-pyrrolidinepropanoic Acid Methyl Ester]
≥ 1000	COC(=O)[C@H](Cc1ccc(NC(=O)c2c(Cl)cccc2Cl)cc1)NC(=O)C1CCCCN1C(=O)CCC(=O)O (stereo partly drawn) [Example 163, 2-[[[(1S)-1-[[4-[(2,6-Dichlorobenzoyl)amino]phenyl]methyl]-2-methoxy-2-oxoethyl]amino]carbonyl]-γ-oxo-1-piperidinebutanoic Acid]
≥ 1000	COC(=O)[C@H](Cc1ccc(NC(=O)c2c(Cl)cccc2Cl)cc1)NC(=O)C1CCCCN1C(=O)CC1(CC(=O)O)CCCC1 (stereo partly shown) [Example 164]
≤ 250	COC(=O)[C@H](Cc1ccc(NC(=O)c2c(Cl)cccc2Cl)cc1)NC(=O)C1CCCCN1C(=O)CC(C)(C)CC(=O)O (stereo partly shown) [Example 165]
≥ 1000	COC(=O)[C@H](Cc1ccc(NC(=O)c2c(Cl)cccc2Cl)cc1)NC(=O)C1CCCCN1C(=O)/C=C\C(=O)O (stereo partly shown) [Example 166]
≥ 1000	O=C(O)CC1(CC(=O)N2CCCCC2C(=O)N[C@@H](Cc2ccc(NC(=O)c3c(Cl)cccc3Cl)cc2)C(=O)O)CCCC1 (stereo partly shown) [Example 168]
≥ 1000	CC(C)(CC(=O)O)CC(=O)N1CCCCC1C(=O)N[C@@H](Cc1ccc(NC(=O)c2c(Cl)cccc2Cl)cc1)C(=O)O (stereo partly shown) [Example 169]
≥ 1000	O=C(O)/C=C\C(=O)N1CCCCC1C(=O)N[C@@H](Cc1ccc(NC(=O)c2c(Cl)cccc2Cl)cc1)C(=O)O (stereo partly shown) [Example 170]
250 to 1000	O=C(O)CCC(=O)N1CCCC(C(=O)N[C@@H](Cc2ccc(NC(=O)c3c(Cl)cccc3Cl)cc2)C(=O)O)C1 (stereo partly drawn) [Example 174, 3-[[[(1S)-1-Carboxy-2-[4-[(2,6-dichlorobenzoyl)amino]phenyl]ethyl]amino]carbonyl]-γ-oxo-1-piperidinebutanoic Acid]
≥ 1000	O=C(O)c1ccc(NC(=O)N2CCC(C(=O)N[C@@H](Cc3ccc(NC(=O)c4c(Cl)cccc4Cl)cc3)C(=O)O)CC2)cc1 [Example 175, N-[[1-[[(4-Carboxyphenyl)amino]carbonyl]-4-piperidinyl]carbonyl]-4-[(2,6-dichlorobenzoyl)amino]-L-phenylalanine]
250 to 1000	CC(=O)CCC(=O)N1CCCC[C@H]1C(=O)N[C@@H](Cc1ccc(NC(=O)c2c(Cl)cccc2Cl)cc1)C(=O)O [Example 179]
≥ 1000	COc1ccc(C(=O)N2CCCC[C@H]2C(=O)N[C@@H](Cc2ccc(NC(=O)c3c(Cl)cccc3Cl)cc2)C(=O)O)cc1OC [Example 180]

IC50 [nM]	Structure (SMILES)
≥ 1000	O=C(O)c1ccc2cc(C(=O)N3CCCC[C@H]3C(=O)N[C@@H](Cc3ccc(NC(=O)c4c(Cl)cccc4Cl)cc3)C(=O)O)ccc2c1 [Example 183]
≥ 1000	O=C(O)CNC(=O)N1CCCC(C(=O)N[C@@H](Cc2ccc(NC(=O)c3c(Cl)cccc3Cl)cc2)C(=O)O)C1 (stereo partly shown) [Example 202]
250 to 1000	O=C(O)c1cccc(C(=O)N2CCCC(C(=O)N[C@@H](Cc3ccc(NC(=O)c4c(Cl)cccc4Cl)cc3)C(=O)O)C2)c1 (stereo partly shown) [Example 205]
≥ 1000	O=C(O)c1ccc(NC(=O)N2CCCC(C(=O)N[C@@H](Cc3ccc(NC(=O)c4c(Cl)cccc4Cl)cc3)C(=O)O)C2)cc1 (stereo partly shown) [Example 208]
≥ 1000	O=C(O)CCC(=O)N1CCC(C(=O)N[C@@H](Cc2ccc(NC(=O)c3c(Cl)cccc3Cl)cc2)C(=O)O)CC1 [Example 209]
≥ 1000	O=C(O)CC1(CC(=O)N2CCC(C(=O)N[C@@H](Cc3ccc(NC(=O)c4c(Cl)cccc4Cl)cc3)C(=O)O)CC2)CCCC1 [Example 210]
≥ 1000	CC(C)(CC(=O)O)CC(=O)N1CCC(C(=O)N[C@@H](Cc2ccc(NC(=O)c3c(Cl)cccc3Cl)cc2)C(=O)O)CC1 [Example 211]
≥ 1000	O=C(O)/C=C\C(=O)N1CCC(C(=O)N[C@@H](Cc2ccc(NC(=O)c3c(Cl)cccc3Cl)cc2)C(=O)O)CC1 [Example 212]
≥ 1000	O=C(O)/C=C/C(=O)N1CCC(C(=O)N[C@@H](Cc2ccc(NC(=O)c3c(Cl)cccc3Cl)cc2)C(=O)O)CC1 [Example 213]
≥ 1000	COCCC(=O)N1CCC(C(=O)N[C@@H](Cc2ccc(NC(=O)c3c(Cl)cccc3Cl)cc2)C(=O)O)CC1 [Example 214]
≥ 1000	O=C(Nc1ccc(C[C@H](NC(=O)C2CCN(C(=O)C3CCCC(C(=O)O)C3)CC2)C(=O)O)cc1)c1c(Cl)cccc1Cl (stereo partly shown) [Example 215]
≥ 1000	O=C(O)CNC(=O)N1CCC(C(=O)N[C@@H](Cc2ccc(NC(=O)c3c(Cl)cccc3Cl)cc2)C(=O)O)CC1 [Example 217]
≥ 1000	COc1ccc(C(=O)N2CCC(C(=O)N[C@@H](Cc3ccc(NC(=O)c4c(Cl)cccc4Cl)cc3)C(=O)O)CC2)cc1OC [Example 218]
≥ 1000	O=C(O)c1ccccc1C(=O)N1CCC(C(=O)N[C@@H](Cc2ccc(NC(=O)c3c(Cl)cccc3Cl)cc2)C(=O)O)CC1 [Example 219]
≥ 1000	O=C(O)c1ccc2cc(C(=O)N3CCC(C(=O)N[C@@H](Cc4ccc(NC(=O)c5c(Cl)cccc5Cl)cc4)C(=O)O)CC3)ccc2c1 [Example 221]
